Key:
[1] = compound: CN(C)CC[C@H](CSc1ccccc1)Nc1ccc(S(=O)(=O)NC(=O)c2ccc(N3CCN(Cc4ccccc4-c4ccc(Cl)cc4)CC3)cc2)cc1[N+](=O)[O-] [ABT-737]
[2] = compound: CN1CCN(CCOc2cc(OC3CCOCC3)c3c(Nc4c(Cl)ccc5c4OCO5)ncnc3c2)CC1 [Saracatinib/AZD0530]
[3] = compound: T1, CN1CC[C@H](c2c(O)cc(O)c3c(=O)cc(-c4ccccc4Cl)oc23)[C@H](O)C1 [Flavopiridol]
[4] = compound: CO[C@@H](C)Cn1c(=O)n(C)c2cnc3ccc(-c4cncc(C(C)(C)O)c4)cc3c21
[5] = compound: Cc1nc(-c2cn3c(n2)-c2ccc(-c4cnn(C(C)(C)C(N)=O)c4)cc2OCC3)n(C(C)C)n1 [Taselisib/GDC0032]
[6] = compound: C=CC(=O)Nc1ccc(C(=O)Nc2[nH]nc3c2CN(C(=O)N[C@H](CN(C)C)c2ccccc2)C3(C)C)cc1 [YKL-5-124]; test: GR value, 72 h; higher = faster growth (1 = untreated, <0 = killing);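 note: breast cancer and non-malignant breast epithelial lines, nine half-log doses, viable cells counted by Hoechst and LIVE/DEAD dye imaging versus time-zero plates and DMSO controls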
[7] = compound: CC(=O)c1c(C)c2cnc(Nc3ccc(N4CCN(CCOCCOCCOCCNC(=O)COc5cccc6c5C(=O)N(C5CCC(=O)NC5=O)C6=O)CC4)cn3)nc2n(C2CCCC2)c1=O [BSJ-03-123]; test: as above
[8] = compound: CC(=O)c1c(C)c2cnc(Nc3ccc(N4CCNCC4)cn3)nc2n(C2CCCC2)c1=O; test: as above
[9] = compound: CCN1CCN(Cc2ccc(Nc3ncc(F)c(-c4cc(F)c5nc(C)n(C(C)C)c5c4)n3)nc2)CC1; test: as above
[10] = compound: CCOc1cc2ncc(C#N)c(Nc3ccc(OCc4ccccn4)c(Cl)c3)c2cc1NC(=O)/C=C/CN(C)C [Neratinib/HKI272]; test: as above
[11] = compound: CCc1cnn2c(NCc3ccc[n+]([O-])c3)cc(N3CCCC[C@H]3CCO)nc12; test: as above
[12] = compound: CN(C)C(=O)c1cc2cnc(Nc3ccc(N4CCNCC4)cn3)nc2n1C1CCCC1 [LEE011/Ribociclib]; test: as above
[13] = compound: CN(C)C/C=C/C(=O)Nc1ccc(C(=O)N2CCC[C@@H](Nc3ncc(Cl)c(-c4c[nH]c5ccccc45)n3)C2)cc1 [THZ531]; test: as above
[14] = compound: CN(C)C/C=C/C(=O)Nc1ccc(C(=O)Nc2cccc(Nc3ncc(Cl)c(-c4c[nH]c5ccccc45)n3)c2)cc1 [THZ1]; test: as above
[15] = compound: T1, Flavopiridol; test: as above
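Throughout, for GR50, 72 h: breast cancer and non-malignant breast epithelial cell lines, Deep Dye Drop or Dye Drop imaging, nine half-log doses, GR normalized to time-zero plates and DMSO-only controls.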

## MDAMB175VII
[1]
  GR50, 72 h: 4.58 µM
[2]
  GR50, 72 h: 0.0646 µM
[3]
  GR50, 72 h: 0.0523 µM
[4]
  GR50, 72 h: < 0.001 µM
[5]
  GR50, 72 h: 0.00272 µM
[6]; 0.001 µM
  GR value: 0.0803 GR
[6]; 0.003162 µM
  GR value: 0.0736 GR
[6]; 0.01 µM
  GR value: 0.0488 GR
[6]; 0.03162 µM
  GR value: 0.076 GR
[6]; 0.1 µM
  GR value: 0.0075 GR
[6]; 0.3162 µM
  GR value: 0.118 GR
[6]; 1 µM
  GR value: -0.0042 GR
[6]; 3.162 µM
  GR value: 0.0879 GR
[6]; 10 µM
  GR value: -0.754 GR
[7]; 0.001 µM
  GR value: 0.829 GR
[7]; 0.003162 µM
  GR value: 0.79 GR
[7]; 0.01 µM
  GR value: 0.713 GR
[7]; 0.03162 µM
  GR value: 0.688 GR
[7]; 0.1 µM
  GR value: 0.734 GR
[7]; 0.3162 µM
  GR value: 0.573 GR
[7]; 1 µM
  GR value: 0.378 GR
[7]; 3.162 µM
  GR value: 0.262 GR
[7]; 10 µM
  GR value: 0.0206 GR
[8]; 0.0003162 µM
  GR value: 0.695 GR
[8]; 0.001 µM
  GR value: 0.582 GR
[8]; 0.003162 µM
  GR value: 0.689 GR
[8]; 0.01 µM
  GR value: 0.453 GR
[8]; 0.03162 µM
  GR value: 0.156 GR
[8]; 0.1 µM
  GR value: -0.0684 GR
[8]; 0.3162 µM
  GR value: -0.0381 GR
[8]; 1 µM
  GR value: -0.0455 GR
[8]; 3.162 µM
  GR value: -0.158 GR
[9]; 0.001 µM
  GR value: 0.725 GR
[9]; 0.003162 µM
  GR value: 0.505 GR
[9]; 0.01 µM
  GR value: 0.0712 GR
[9]; 0.03162 µM
  GR value: 0.105 GR
[9]; 0.1 µM
  GR value: 0.0173 GR
[9]; 0.3162 µM
  GR value: 0.0287 GR
[9]; 1 µM
  GR value: -0.0111 GR
[9]; 3.162 µM
  GR value: -0.0725 GR
[9]; 10 µM
  GR value: -0.173 GR
[10]; 0.0003162 µM
  GR value: 0.753 GR
[10]; 0.001 µM
  GR value: 0.53 GR
[10]; 0.003162 µM
  GR value: 0.138 GR
[10]; 0.01 µM
  GR value: -0.551 GR
[10]; 0.03162 µM
  GR value: -0.848 GR
[10]; 0.1 µM
  GR value: -0.905 GR
[10]; 0.3162 µM
  GR value: -0.932 GR
[10]; 1 µM
  GR value: -0.949 GR
[10]; 3.162 µM
  GR value: -0.983 GR
[11]; 0.0001 µM
  GR value: 1.09 GR
[11]; 0.0003162 µM
  GR value: 1.07 GR
[11]; 0.001 µM
  GR value: 1.14 GR
[11]; 0.003162 µM
  GR value: 1.23 GR
[11]; 0.01 µM
  GR value: 0.742 GR
[11]; 0.03162 µM
  GR value: -0.651 GR
[11]; 0.1 µM
  GR value: -0.516 GR
[11]; 0.3162 µM
  GR value: -0.49 GR
[11]; 1 µM
  GR value: -0.497 GR
[12]; 0.001 µM
  GR value: 0.4 GR
[12]; 0.003162 µM
  GR value: 0.267 GR
[12]; 0.01 µM
  GR value: 0.288 GR
[12]; 0.03162 µM
  GR value: 0.15 GR
[12]; 0.1 µM
  GR value: 0.195 GR
[12]; 0.3162 µM
  GR value: 0.0606 GR
[12]; 1 µM
  GR value: 0.0351 GR
[12]; 3.162 µM
  GR value: 0.19 GR
[12]; 10 µM
  GR value: 0.192 GR
[13]; 0.0001 µM
  GR value: 0.885 GR
[13]; 0.0003162 µM
  GR value: 0.884 GR
[13]; 0.001 µM
  GR value: 0.841 GR
[13]; 0.003162 µM
  GR value: 0.919 GR
[13]; 0.01 µM
  GR value: 1 GR
[13]; 0.03162 µM
  GR value: 0.677 GR
[13]; 0.1 µM
  GR value: -0.409 GR
[13]; 0.3162 µM
  GR value: -0.673 GR
[13]; 1 µM
  GR value: -0.403 GR
[14]; 0.0001 µM
  GR value: 0.829 GR
[14]; 0.0003162 µM
  GR value: 1.05 GR
[14]; 0.001 µM
  GR value: 1.01 GR
[14]; 0.003162 µM
  GR value: 0.843 GR
[14]; 0.01 µM
  GR value: 0.736 GR
[14]; 0.03162 µM
  GR value: 0.515 GR
[14]; 0.1 µM
  GR value: -0.0075 GR
[14]; 0.3162 µM
  GR value: -0.159 GR
[14]; 1 µM
  GR value: -0.44 GR
[15]; 0.0001 µM
  GR value: 0.962 GR
[15]; 0.0003162 µM
  GR value: 1 GR
[15]; 0.001 µM
  GR value: 0.765 GR
[15]; 0.003162 µM
  GR value: 0.721 GR
[15]; 0.01 µM
  GR value: 0.675 GR
[15]; 0.03162 µM
  GR value: 0.748 GR
[15]; 0.1 µM
  GR value: 0.442 GR
[15]; 0.3162 µM
  GR value: -0.175 GR
[15]; 1 µM
  GR value: -0.302 GR

From the supplement of paper PMC9663587
